Data taken from ChEMBL document CHEMBL1201862, “PubChem BioAssay data set” (2004).
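Cultured in 96-well plates, cells were exposed to test compound for 48 hours across five concentrations. The concentration for 50% growth inhibition is given as GI50.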 Active and inactive are the calls of the source. No stated cut-off is given here; in the data, active = GI50 up to about 1.1 µM and inactive = higher.

Legend:
Test in all cases: DTP human tumour cell line panel, 48 h
Hs-578T = system: Hs-578T
SK-MEL-5 = system: SK-MEL-5
SNB-75 = system: SNB-75
NCI/ADR-RES = system: NCI/ADR-RES
SF-295 = system: SF-295
MOLT-4 = system: MOLT-4
M14 = system: M14
HL-60 = system: HL-60
COLO 205 = system: COLO 205
SK-MEL-2 = system: SK-MEL-2
RPMI-8226 = system: RPMI-8226
OVCAR-4 = system: OVCAR-4
KM12 = system: KM12
OVCAR-8 = system: OVCAR-8
UACC-257 = system: UACC-257
MDA-MB-435 = system: MDA-MB-435
UACC-62 = system: UACC-62
SW-620 = system: SW-620
SF-539 = system: SF-539
NCI-H522 = system: NCI-H522

Measured: GI50

N#Cc1c(-c2ccc(Cl)cc2)c2c([nH]c1=O)-c1ccccc1SC2
inactive: Hs-578T 67.9 µM | SK-MEL-5 > 100 µM | SNB-75 27.5 µM | NCI/ADR-RES 29.2 µM | SF-295 28 µM | MOLT-4 27.4 µM | M14 > 100 µM | HL-60 21 µM | COLO 205 22.3 µM | SK-MEL-2 52.6 µM | RPMI-8226 16.7 µM | OVCAR-4 38.6 µM | KM12 63.7 µM | OVCAR-8 57.5 µM | UACC-257 > 100 µM | MDA-MB-435 41 µM | UACC-62 32.7 µM | SW-620 > 100 µM | SF-539 25.6 µM

COC(=O)c1csc(-c2csc(CCNC(=O)OC(C)(C)C)n2)n1
inactive: Hs-578T > 100 µM | SK-MEL-5 90.6 µM | SNB-75 51.8 µM | NCI/ADR-RES 54.3 µM | SF-295 > 100 µM | MOLT-4 42.7 µM | M14 > 100 µM | HL-60 > 100 µM | COLO 205 > 100 µM | RPMI-8226 > 100 µM | KM12 > 100 µM | OVCAR-8 > 100 µM | UACC-257 > 100 µM | MDA-MB-435 > 100 µM | UACC-62 59.7 µM | SW-620 > 100 µM | SF-539 > 100 µM

CC(=O)OCC1OC(n2c(C#N)cc(=O)[nH]c2=O)CC1OC(C)=O (centres undefined)
inactive: Hs-578T > 100 µM | SK-MEL-5 > 100 µM | SNB-75 > 100 µM | NCI/ADR-RES > 100 µM | SF-295 > 100 µM | NCI-H522 > 100 µM | MOLT-4 > 100 µM | M14 > 100 µM | HL-60 > 100 µM | COLO 205 > 100 µM | SK-MEL-2 > 100 µM | OVCAR-4 > 100 µM | KM12 > 100 µM | OVCAR-8 > 100 µM | UACC-257 > 100 µM | MDA-MB-435 > 100 µM | UACC-62 > 100 µM | SW-620 > 100 µM | SF-539 > 100 µM

C[C@H]1C[C@H](C)c2ccccc2N(C)/C1=N\c1ccccc1
inactive: Hs-578T 24.7 µM | SK-MEL-5 16.7 µM | SNB-75 57.1 µM | NCI/ADR-RES 27.2 µM | SF-295 26.4 µM | MOLT-4 22.5 µM | M14 21.5 µM | HL-60 3.93 µM | COLO 205 18.4 µM | SK-MEL-2 20.5 µM | RPMI-8226 36.7 µM | OVCAR-4 > 100 µM | KM12 43.3 µM | OVCAR-8 43.2 µM | UACC-257 20.3 µM | MDA-MB-435 20.4 µM | UACC-62 23.5 µM | SW-620 61.5 µM | SF-539 30.2 µM

Cc1cn2c(/C=C3/C(=O)Nc4cccc(Cl)c43)c(Cl)nc2s1
inactive: Hs-578T 4.13 µM | SNB-75 14.2 µM | NCI/ADR-RES > 100 µM | SF-295 36.3 µM | NCI-H522 > 100 µM | MOLT-4 > 100 µM | M14 34.7 µM | HL-60 53.7 µM | RPMI-8226 > 100 µM | OVCAR-4 > 100 µM | KM12 > 100 µM | OVCAR-8 > 100 µM | UACC-257 > 100 µM | MDA-MB-435 > 100 µM | UACC-62 19.6 µM | SW-620 3.18 µM

O=C(Nc1nn(C(=O)c2cccnc2)c(=O)s1)c1ccc(Cl)cc1
inactive: Hs-578T 29.2 µM | SK-MEL-5 31.4 µM | SNB-75 29.4 µM | NCI/ADR-RES > 100 µM | SF-295 46.3 µM | NCI-H522 21.7 µM | MOLT-4 28.1 µM | M14 > 100 µM | HL-60 60.3 µM | COLO 205 40.6 µM | SK-MEL-2 > 100 µM | OVCAR-4 84.7 µM | KM12 61.7 µM | OVCAR-8 > 100 µM | UACC-257 > 100 µM | MDA-MB-435 > 100 µM | UACC-62 > 100 µM | SW-620 > 100 µM | SF-539 29.4 µM

O=C(c1cc(Cl)cc(Cl)c1)N(C(=O)N1CCN(c2ccccc2)CC1)c1ccccc1
inactive: Hs-578T 56.1 µM | SK-MEL-5 21.6 µM | SNB-75 > 100 µM | NCI/ADR-RES 25.6 µM | SF-295 37.2 µM | NCI-H522 16.4 µM | MOLT-4 20.1 µM | M14 27.6 µM | HL-60 17.2 µM | COLO 205 17.3 µM | SK-MEL-2 24.8 µM | OVCAR-4 23 µM | KM12 23.5 µM | OVCAR-8 53.5 µM | UACC-257 28.9 µM | MDA-MB-435 11.1 µM | UACC-62 24.9 µM | SW-620 30.3 µM | SF-539 41 µM

COC(=O)c1ccccc1C1CN=NC12Cc1ccc3c(c1C2=O)CCC3 (centres undefined)
inactive: Hs-578T 74.3 µM | SK-MEL-5 17.4 µM | SNB-75 58.6 µM | NCI/ADR-RES 19.5 µM | SF-295 70.6 µM | NCI-H522 6.55 µM | MOLT-4 12.6 µM | M14 > 100 µM | HL-60 19.6 µM | COLO 205 > 100 µM | SK-MEL-2 > 100 µM | OVCAR-4 > 100 µM | KM12 42.1 µM | OVCAR-8 94.4 µM | UACC-257 44.1 µM | MDA-MB-435 > 100 µM | UACC-62 > 100 µM | SW-620 > 100 µM | SF-539 > 100 µM

COC(=O)C(Cc1c[nH]c2ccccc12)NP(=O)(O)OCC1OC(n2cc(Br)c(=O)[nH]c2=O)CC1O (centres undefined)
inactive: Hs-578T > 100 µM | SK-MEL-5 > 100 µM | SNB-75 > 100 µM | NCI/ADR-RES > 100 µM | SF-295 > 100 µM | NCI-H522 > 100 µM | MOLT-4 > 100 µM | M14 > 100 µM | HL-60 > 100 µM | COLO 205 > 100 µM | SK-MEL-2 > 100 µM | OVCAR-4 > 100 µM | KM12 > 100 µM | OVCAR-8 > 100 µM | UACC-257 > 100 µM | MDA-MB-435 > 100 µM | UACC-62 > 100 µM | SW-620 > 100 µM | SF-539 > 100 µM

O=c1c2c(nc3[nH]ccn13)CCC2
inactive: Hs-578T > 10 µM | SK-MEL-5 > 10 µM | SNB-75 > 10 µM | NCI/ADR-RES > 10 µM | SF-295 > 10 µM | MOLT-4 > 10 µM | M14 > 10 µM | HL-60 > 10 µM | COLO 205 > 10 µM | SK-MEL-2 > 10 µM | RPMI-8226 > 10 µM | OVCAR-4 > 10 µM | KM12 > 10 µM | OVCAR-8 > 10 µM | UACC-257 > 10 µM | MDA-MB-435 > 10 µM | UACC-62 > 10 µM | SW-620 > 10 µM | SF-539 > 10 µM

CCOC(=O)c1cc2c3c(cc(OC)c2[nH]1)N(C(=O)OCC)CC3
inactive: Hs-578T > 100 µM | SK-MEL-5 > 100 µM | SNB-75 > 100 µM | NCI/ADR-RES > 100 µM | SF-295 > 100 µM | MOLT-4 > 100 µM | M14 > 100 µM | HL-60 > 100 µM | COLO 205 > 100 µM | SK-MEL-2 > 100 µM | RPMI-8226 > 100 µM | OVCAR-4 > 100 µM | KM12 > 100 µM | OVCAR-8 > 100 µM | UACC-257 > 100 µM | MDA-MB-435 > 100 µM | UACC-62 > 100 µM | SW-620 > 100 µM | SF-539 > 100 µM
